Measurements taken from patent US8679514B2, “Fungicidal mixtures based on azolopyrimidinylamines” (BASF SE, priority 2005, dated 2014).
Read-outs that look alike come from different tables or passages of the source.

Assays:
Phytophthora infestans [1] = experiment: whole plant or invertebrate; assay type: in vivo; conditions: Phytophthora infestans, read-out: Observed activity (%)
Plasmopara viticola [2] = experiment: whole plant or invertebrate; assay type: in vivo; conditions: read-out: Observed activity (%)
Plasmopara viticola [3] = experiment: whole plant or invertebrate; assay type: in vivo; conditions: read-out: Observed activity (%); remark: listed apart in the source
Phytophthora infestans [4] = experiment: microbe, parasite or virus in culture; assay type: cell-based; conditions: Phytophthora infestans, read-out: Observed activity (%)
Botrytis cinerea = experiment: Activity against the gray mold pathogen Botrytis cinerea in the microtiter test; assay type: cell-based; conditions: Botrytis cinerea, single active compound, read-out: Observed activity (%); for inhibition at […]: Conc. 0.063 mg/l
Pyricularia oryzae = experiment: microbe, parasite or virus in culture; assay type: cell-based; conditions: Pyricularia oryzae, read-out: Observed activity (%)
Phytophthora infestans [5] = experiment: whole plant or invertebrate; assay type: in vivo; conditions: 144 h, read-out: Efficacy in % of the untreated control
Septoria tritici = experiment: Activity against the speckled leaf blotch pathogen Septoria tritici in the microtiter test; assay type: cell-based; conditions: single active compound

| Structure (SMILES) | inhibition at 4 µg/mL (Phytophthora infestans [1]) [%] | inhibition at 0.25 µg/mL (Plasmopara viticola [2]) [%] | inhibition at 4 µg/mL (Plasmopara viticola [2]) [%] | inhibition at 4 µg/mL (Plasmopara viticola [3]) [%] | inhibition at 0.016 µg/mL (Phytophthora infestans [4]) [%] | inhibition at 0.25 µg/mL (Phytophthora infestans [4]) [%] | inhibition at 1 µg/mL (Phytophthora infestans [4]) [%] | inhibition at […] (Phytophthora infestans [4]) [%] | inhibition at […] (Botrytis cinerea) [%] | inhibition at 0.25 µg/mL (Botrytis cinerea; Conc. 0.25 mg/l) [%] | inhibition at 16 µg/mL (Pyricularia oryzae) [%] | pest or weed control at 16 ppm (Phytophthora infestans [5]) [%] | inhibition at 1 µg/mL (Botrytis cinerea; Conc. 1 mg/l) [%] | inhibition at 16 µg/mL (Botrytis cinerea; Conc. 16 mg/l) [%] | inhibition at […] (Septoria tritici; Zymoseptoria tritici, 0.063 mg/l, read-out: Observed activity (%)) [%] | Observed activity (%) (Septoria tritici; 0.25 mg/l) |
| --- | --- | --- | --- | --- | --- | --- | --- | --- | --- | --- | --- | --- | --- | --- | --- | --- |
| CCCCCCCCc1c(CC)nc2ncnn2c1N [Compound I-110, 5-ethyl-6-octyl-[1,2,4]triazolo[1,5-a]pyrimidin-7-ylamine] | 11 | 0 | 0 | 0 | 1 | 5 | 59 | 3 | 8 | 18 | 8 | – | – | – | – | – |
| CCCCCCCCc1c(CC)nc2nc(N)nn2c1N [Compound I-120, 5-ethyl-6-octyl-[1,2,4]triazolo[1,5-a]pyrimidine-2,7-diamine] | – | – | – | – | 0 | 6 | – | 2 | 0 | – | 25 | 33 | 9 | 15 | 0 | – |
| CCC(=O)C1=C([O-])CC(C(=O)[O-])CC1=O.[Ca+2] (stereo not drawn) [prohexadione-Ca, reference compound] | – | – | – | – | – | – | – | – | – | – | – | – | – | – | – | 5 |
